Measured values from ChEMBL document CHEMBL4732160, “Design and synthesis of 7-O-1,2,3-triazole hesperetin derivatives to relieve inflammation of acute liver injury in mice” (Eur J Med Chem, 2021).
Activity calls are given as the source filed them. The rule behind the calls is not given here.

Assays:
[1] = Cytotoxicity against mouse RAW264.7 cells assessed as cell viability at 40 uM measured after 24 hrs by MTT assay relative to control; type: cell-based
RAW264.7 [2] = assay: Antiinflammatory activity in mouse RAW264.7 cells assessed as inhibition of LPS-induced IL6 production at 10 uM preincubated for 1 hr followed by LPS stimulation and measured after 22 hrs by ELISA; type: functional, cell-based; conditions: time 23.0 hrs
RAW264.7 [3] = assay: Antiinflammatory activity in mouse RAW264.7 cells assessed as inhibition of LPS-induced IL1beta production at 10 uM preincubated for 1 hr followed by LPS stimulation and measured after 22 hrs by ELISA; type: functional, cell-based; conditions: time 23.0 hrs
RAW264.7 [4] = assay: Antiinflammatory activity in mouse RAW264.7 cells assessed as inhibition of LPS-induced NO production preincubated for 2 hrs followed by LPS stimulation and measured after 24 hrs by Griess method; type: functional, cell-based
RAW264.7 [5] = assay: Antiinflammatory activity in mouse RAW264.7 cells assessed as inhibition of LPS-induced NO production at 10 uM preincubated for 2 hrs followed by LPS stimulation and measured after 24 hrs by Griess method relative to control; type: functional; conditions: time 26 hrs
RAW264.7 [6] = assay: Antiinflammatory activity in mouse RAW264.7 cells assessed as inhibition of LPS-induced TNFalpha production at 10 uM preincubated for 1 hr followed by LPS stimulation and measured after 22 hrs by ELISA; type: functional, cell-based; conditions: time 23.0 hrs

Row | Compound | viability at 24 h, 40 µM [1] | inhibition (RAW264.7 [2]) | inhibition (RAW264.7 [3]) | IC50 (RAW264.7 [4]) | inhibition at 10 µM (RAW264.7 [5]) | inhibition (RAW264.7 [6])
1 | COc1ccc([C@@H]2CC(=O)c3c(O)cc(OCc4cn(Cc5ccc(Cl)cc5)nn4)cc3O2)cc1O | 94% | Active | Active | 17.8 µM | 29% | Active
2 | COc1ccc([C@@H]2CC(=O)c3c(O)cc(OCc4cn(Cc5ccccc5Cl)nn4)cc3O2)cc1O | 83% | Active | Active | 6.14 µM | 63.1% | Active
3 | C#CCOc1cc(O)c2c(c1)O[C@H](c1ccc(OC)c(O)c1)C/C2=N\O |  |  |  | 19.1 µM | 38.7% | 
4 | COc1ccc([C@@H]2C/C(=N\O)c3c(O)cc(OCc4cn(Cc5ccccc5)nn4)cc3O2)cc1O | 93% | Active | Active | 6.13 µM | 63.6% | Active
5 | COc1ccc([C@@H]2CC(=O)c3c(O)cc(OCc4cn(CC(=O)c5ccccc5Cl)nn4)cc3O2)cc1O | 99% | Active | Active | 13.2 µM | 34.1% | Active
6 | COc1ccc([C@@H]2CC(=O)c3c(O)cc(OCc4cn(Cc5ccccc5C(F)(F)F)nn4)cc3O2)cc1O | 135% | Active | Active | 12.5 µM | 48% | Active
7 | C#CCOc1cc(O)c2c(c1)O[C@H](c1ccc(OC)c(O)c1)CC2=O |  |  |  | 20.9 µM | 35.2% | 
8 | COc1ccc([C@@H]2CC(=O)c3c(O)cc(OCc4cn(Cc5cccc(Cl)c5)nn4)cc3O2)cc1O | 120% | Active | Active | 18.2 µM | 28% | Active
9 | CCCCn1cc(COc2cc(O)c3c(c2)O[C@H](c2ccc(OC)c(O)c2)C/C3=N\O)nn1 | 62% | Active | Active | 8.9 µM | 56.9% | Active
10 | COc1ccc([C@@H]2CC(=O)c3c(O)cc(OCc4cn(C5CCCC5)nn4)cc3O2)cc1O | 110% | Active | Active | 10.5 µM | 53.8% | Active
11 | COc1ccc([C@@H]2CC(=O)c3c(O)cc(OCc4cn(CC(=O)c5ccccc5F)nn4)cc3O2)cc1O | 113% | Active | Active | 18.9 µM | 34.5% | Active
12 | COc1ccc([C@@H]2CC(=O)c3c(O)cc(OCc4cn(Cc5cccc(C)c5)nn4)cc3O2)cc1O | 113% | Active | Active | 17.4 µM | 31% | Active
13 | COc1ccc([C@@H]2CC(=O)c3c(O)cc(OCc4cn(CC(=O)c5ccc(F)cc5)nn4)cc3O2)cc1O | 64% | Active | Active | 15.4 µM | 38.5% | Active
14 | C=CCn1cc(COc2cc(O)c3c(c2)O[C@H](c2ccc(OC)c(O)c2)CC3=O)nn1 | 118% | Active | Active | 13.8 µM | 50.1% | Active
15 | COc1ccc([C@@H]2CC(=O)c3c(O)cc(OCc4cn(Cc5ccccc5C)nn4)cc3O2)cc1O | 100% | Active | Active | 13.1 µM | 45.7% | Active
16 | CCn1cc(COc2cc(O)c3c(c2)O[C@H](c2ccc(OC)c(O)c2)CC3=O)nn1 | 106% | Active | Active | 15 µM | 41.4% | Active
17 | COc1ccc([C@@H]2CC(=O)c3c(O)cc(OCc4cn(CC(=O)c5ccccc5)nn4)cc3O2)cc1O | 112% | Active | Active | 16.9 µM | 32.1% | Active
18 | COc1ccc([C@@H]2C/C(=N\O)c3c(O)cc(OCc4cn(Cc5ccccc5F)nn4)cc3O2)cc1O | 82% | Active | Active | 5.71 µM | 65.4% | Active
19 | COc1ccc([C@@H]2C/C(=N\O)c3c(O)cc(OCc4cn(Cc5ccccc5C)nn4)cc3O2)cc1O | 83% | Active | Active | 18 µM | 22.5% | Active
20 | COc1ccc([C@@H]2CC(=O)c3c(O)cc(OCc4cn(Cc5cccc(C(F)(F)F)c5)nn4)cc3O2)cc1O | 93% | Active | Active | 19.9 µM | 35.5% | Active
21 | CCn1cc(COc2cc(O)c3c(c2)O[C@H](c2ccc(OC)c(O)c2)C/C3=N\O)nn1 | 101% | Active | Active | 3.14 µM | 65.1% | Active
22 | CCCn1cc(COc2cc(O)c3c(c2)O[C@H](c2ccc(OC)c(O)c2)CC3=O)nn1 | 114% | Active | Active | 9.67 µM | 56.4% | Active
23 | COc1ccc([C@@H]2CC(=O)c3c(O)cc(OCc4cn(C5CCC5)nn4)cc3O2)cc1O | 111% | Active | Active | 15.3 µM | 44.2% | Active
24 | COc1ccc([C@@H]2CC(=O)c3c(O)cc(OCc4cn(Cc5ccc(C(F)(F)F)cc5)nn4)cc3O2)cc1O | 66% | Active | Active | 17.7 µM | 36.4% | Active
25 | COc1ccc([C@@H]2CC(=O)c3c(O)cc(OCc4cn(C)nn4)cc3O2)cc1O | 105% | Active | Active | 15.2 µM | 40% | Active
26 | COc1ccc([C@@H]2CC(=O)c3c(O)cc(OCc4cn(Cc5ccc(C)cc5)nn4)cc3O2)cc1O | 110% | Active | Active | 16.8 µM | 29.4% | Active
27 | COc1ccc2c(c1)c(CC(=O)O)c(C)n2C(=O)c1ccc(Cl)cc1 [INDOMETHACIN] | 87% | Active | Active |  |  | Active
28 | Cc1ccc(-c2cc(C(F)(F)F)nn2-c2ccc(S(N)(=O)=O)cc2)cc1 [CELECOXIB] | 83% | Active | Active |  |  | Active
